Test results: ChEMBL document CHEMBL1152560, “Substituted 2-arylbenzothiazoles as kinase inhibitors: hit-to-lead optimization” (Bioorg Med Chem, 2009)

Columns and labels:
[1] = molecular target: Protein kinase C eta type (Homo sapiens) (UniProt P24723); assay: Residual activity of PKCeta at 1 uM by microplate scintillation counting
[2] = molecular target: Fibroblast growth factor receptor 2 (Homo sapiens) (UniProt P21802); assay: Residual activity of FGFR2 at 0.1 uM by microplate scintillation counting
[3] = tested on: Epidermal growth factor receptor (Homo sapiens), P00533 [T790M]; assay: Residual activity of EGFR T790M mutant at 10 uM by microplate scintillation counting
[4] = molecular target: T1, Interleukin-1 receptor-associated kinase 4 (Homo sapiens) (UniProt Q9NWZ3); assay: Residual activity of IRAK4 at 10 uM by microplate scintillation counting
T1 sequence (whole entry): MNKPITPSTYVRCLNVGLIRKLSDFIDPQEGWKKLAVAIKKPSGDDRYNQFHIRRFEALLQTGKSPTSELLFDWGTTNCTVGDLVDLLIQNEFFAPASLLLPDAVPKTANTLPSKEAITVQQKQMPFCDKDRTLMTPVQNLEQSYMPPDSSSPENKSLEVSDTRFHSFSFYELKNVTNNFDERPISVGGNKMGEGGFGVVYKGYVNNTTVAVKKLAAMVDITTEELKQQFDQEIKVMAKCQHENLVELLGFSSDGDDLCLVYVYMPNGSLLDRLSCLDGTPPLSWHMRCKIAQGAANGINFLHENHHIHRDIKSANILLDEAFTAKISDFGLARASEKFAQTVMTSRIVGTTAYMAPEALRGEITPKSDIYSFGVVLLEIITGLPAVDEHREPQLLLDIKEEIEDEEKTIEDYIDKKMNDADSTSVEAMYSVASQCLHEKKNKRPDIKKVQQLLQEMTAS

[5] = molecular target: Mitogen-activated protein kinase 10 (Homo sapiens) (UniProt P53779); assay: Residual activity of JNK3 at 10 uM by microplate scintillation counting
[6] = molecular target: Interferon-induced, double-stranded RNA-activated protein kinase (Homo sapiens) (UniProt P19525); assay: Residual activity of EIF2AK2 at 0.1 uM by microplate scintillation counting
[7] = molecular target: T2, Serine/threonine-protein kinase Nek11 (Homo sapiens) (UniProt Q8NG66); assay: Residual activity of NEK11 at 10 uM by microplate scintillation counting
T2 sequence (whole entry): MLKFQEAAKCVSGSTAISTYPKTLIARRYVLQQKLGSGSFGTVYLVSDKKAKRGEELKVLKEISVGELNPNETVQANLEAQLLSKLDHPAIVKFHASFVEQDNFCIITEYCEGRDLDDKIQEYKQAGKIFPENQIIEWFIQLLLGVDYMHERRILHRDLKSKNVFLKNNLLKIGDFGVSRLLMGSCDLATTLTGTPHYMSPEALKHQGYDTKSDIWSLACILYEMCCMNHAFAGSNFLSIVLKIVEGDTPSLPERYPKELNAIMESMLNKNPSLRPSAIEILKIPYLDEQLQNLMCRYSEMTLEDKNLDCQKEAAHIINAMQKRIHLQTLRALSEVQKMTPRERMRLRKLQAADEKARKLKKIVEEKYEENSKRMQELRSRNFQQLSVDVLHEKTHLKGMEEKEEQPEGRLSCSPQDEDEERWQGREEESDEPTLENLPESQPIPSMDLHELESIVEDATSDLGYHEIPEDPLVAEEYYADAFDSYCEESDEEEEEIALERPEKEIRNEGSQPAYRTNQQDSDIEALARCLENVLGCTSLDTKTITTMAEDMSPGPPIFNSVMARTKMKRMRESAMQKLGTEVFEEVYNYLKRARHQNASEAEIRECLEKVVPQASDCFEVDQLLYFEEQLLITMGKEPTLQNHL

[8] = molecular target: T3, Calcium/calmodulin-dependent protein kinase type IV (Homo sapiens) (UniProt Q16566); assay: Residual activity of CAMK4 at 0.1 uM by microplate scintillation counting
T3 sequence (whole entry): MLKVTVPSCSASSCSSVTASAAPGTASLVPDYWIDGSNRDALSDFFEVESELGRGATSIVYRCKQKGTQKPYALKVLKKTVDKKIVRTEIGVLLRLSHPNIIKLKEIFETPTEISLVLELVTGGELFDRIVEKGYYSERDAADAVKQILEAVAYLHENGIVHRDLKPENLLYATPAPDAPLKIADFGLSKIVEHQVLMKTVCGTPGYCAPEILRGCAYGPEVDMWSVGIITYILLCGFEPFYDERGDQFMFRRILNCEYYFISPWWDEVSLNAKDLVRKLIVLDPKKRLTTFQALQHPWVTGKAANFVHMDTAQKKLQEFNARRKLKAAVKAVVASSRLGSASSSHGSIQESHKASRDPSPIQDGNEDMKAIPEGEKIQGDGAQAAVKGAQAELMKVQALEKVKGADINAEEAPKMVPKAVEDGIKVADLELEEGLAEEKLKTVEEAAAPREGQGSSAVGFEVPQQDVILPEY

[9] = molecular target: Protein kinase C beta type (Homo sapiens) (UniProt P05771); assay: Residual activity of PKCbeta1 at 0.1 uM by microplate scintillation counting
[10] = molecular target: T4, Tyrosine-protein kinase receptor TYRO3 (Homo sapiens) (UniProt Q06418); assay: Residual activity of TYRO3 at 0.1 uM by microplate scintillation counting
T4 sequence (whole entry): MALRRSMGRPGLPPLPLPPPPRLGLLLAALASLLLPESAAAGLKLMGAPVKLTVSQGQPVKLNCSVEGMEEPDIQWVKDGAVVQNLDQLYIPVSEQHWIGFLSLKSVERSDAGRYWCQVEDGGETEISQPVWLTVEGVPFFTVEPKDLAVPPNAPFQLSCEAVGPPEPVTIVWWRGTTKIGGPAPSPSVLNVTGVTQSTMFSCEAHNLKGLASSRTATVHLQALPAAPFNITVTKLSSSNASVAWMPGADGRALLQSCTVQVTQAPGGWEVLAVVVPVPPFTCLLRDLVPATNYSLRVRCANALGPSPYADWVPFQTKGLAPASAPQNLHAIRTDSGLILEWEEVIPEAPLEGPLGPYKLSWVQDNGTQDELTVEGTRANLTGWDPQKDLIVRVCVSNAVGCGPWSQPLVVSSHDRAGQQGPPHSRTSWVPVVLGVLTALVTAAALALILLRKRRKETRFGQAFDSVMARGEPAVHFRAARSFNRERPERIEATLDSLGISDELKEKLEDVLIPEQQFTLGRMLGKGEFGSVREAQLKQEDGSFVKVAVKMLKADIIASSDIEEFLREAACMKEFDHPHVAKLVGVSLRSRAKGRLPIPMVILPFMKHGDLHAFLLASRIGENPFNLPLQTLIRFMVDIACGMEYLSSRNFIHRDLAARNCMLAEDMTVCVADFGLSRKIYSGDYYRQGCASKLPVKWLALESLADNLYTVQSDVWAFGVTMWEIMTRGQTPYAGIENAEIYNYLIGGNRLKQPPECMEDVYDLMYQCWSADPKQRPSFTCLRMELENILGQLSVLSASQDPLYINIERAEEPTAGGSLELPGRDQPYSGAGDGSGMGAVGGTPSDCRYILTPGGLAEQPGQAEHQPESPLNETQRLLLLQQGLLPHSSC

Protein kinase C beta type (Homo sapiens), sequence (P05771 2-671 limits assumed): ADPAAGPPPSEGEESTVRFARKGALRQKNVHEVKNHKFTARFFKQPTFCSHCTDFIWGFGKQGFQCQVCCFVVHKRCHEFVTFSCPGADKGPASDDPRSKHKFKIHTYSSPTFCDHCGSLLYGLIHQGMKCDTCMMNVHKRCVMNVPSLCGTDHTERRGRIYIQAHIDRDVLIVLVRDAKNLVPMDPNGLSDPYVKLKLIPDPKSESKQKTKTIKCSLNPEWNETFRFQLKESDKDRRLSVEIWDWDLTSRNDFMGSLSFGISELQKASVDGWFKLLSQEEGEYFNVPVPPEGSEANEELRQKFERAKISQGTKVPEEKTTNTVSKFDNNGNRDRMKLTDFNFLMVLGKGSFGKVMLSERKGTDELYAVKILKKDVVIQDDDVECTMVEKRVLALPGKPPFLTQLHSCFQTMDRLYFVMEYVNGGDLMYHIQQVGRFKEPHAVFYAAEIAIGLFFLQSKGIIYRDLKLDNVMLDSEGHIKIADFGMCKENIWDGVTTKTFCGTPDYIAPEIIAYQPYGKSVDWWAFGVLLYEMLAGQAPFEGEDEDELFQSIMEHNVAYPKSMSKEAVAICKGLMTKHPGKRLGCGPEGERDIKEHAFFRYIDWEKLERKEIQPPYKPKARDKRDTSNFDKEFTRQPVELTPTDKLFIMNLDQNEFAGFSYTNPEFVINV
Protein kinase C eta type (Homo sapiens), sequence (P24723 whole entry): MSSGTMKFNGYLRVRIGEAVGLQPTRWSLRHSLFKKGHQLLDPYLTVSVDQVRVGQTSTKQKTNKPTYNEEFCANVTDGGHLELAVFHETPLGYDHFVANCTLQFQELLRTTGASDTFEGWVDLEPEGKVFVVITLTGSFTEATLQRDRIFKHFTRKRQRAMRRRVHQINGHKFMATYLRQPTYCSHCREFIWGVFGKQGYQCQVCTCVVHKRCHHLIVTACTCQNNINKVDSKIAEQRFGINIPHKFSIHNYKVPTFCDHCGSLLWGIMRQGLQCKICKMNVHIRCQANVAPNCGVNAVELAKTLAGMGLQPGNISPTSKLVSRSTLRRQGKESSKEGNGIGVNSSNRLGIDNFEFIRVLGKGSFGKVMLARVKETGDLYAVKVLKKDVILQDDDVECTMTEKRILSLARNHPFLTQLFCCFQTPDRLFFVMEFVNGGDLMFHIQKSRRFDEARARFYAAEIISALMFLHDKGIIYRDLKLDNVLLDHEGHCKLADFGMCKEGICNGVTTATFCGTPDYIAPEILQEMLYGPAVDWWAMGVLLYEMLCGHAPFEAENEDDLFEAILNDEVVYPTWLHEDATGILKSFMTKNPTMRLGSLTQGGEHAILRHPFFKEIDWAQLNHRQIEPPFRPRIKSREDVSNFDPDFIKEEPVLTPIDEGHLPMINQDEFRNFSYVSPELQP
Interferon-induced, double-stranded RNA-activated protein kinase (Homo sapiens), sequence (P19525 whole entry): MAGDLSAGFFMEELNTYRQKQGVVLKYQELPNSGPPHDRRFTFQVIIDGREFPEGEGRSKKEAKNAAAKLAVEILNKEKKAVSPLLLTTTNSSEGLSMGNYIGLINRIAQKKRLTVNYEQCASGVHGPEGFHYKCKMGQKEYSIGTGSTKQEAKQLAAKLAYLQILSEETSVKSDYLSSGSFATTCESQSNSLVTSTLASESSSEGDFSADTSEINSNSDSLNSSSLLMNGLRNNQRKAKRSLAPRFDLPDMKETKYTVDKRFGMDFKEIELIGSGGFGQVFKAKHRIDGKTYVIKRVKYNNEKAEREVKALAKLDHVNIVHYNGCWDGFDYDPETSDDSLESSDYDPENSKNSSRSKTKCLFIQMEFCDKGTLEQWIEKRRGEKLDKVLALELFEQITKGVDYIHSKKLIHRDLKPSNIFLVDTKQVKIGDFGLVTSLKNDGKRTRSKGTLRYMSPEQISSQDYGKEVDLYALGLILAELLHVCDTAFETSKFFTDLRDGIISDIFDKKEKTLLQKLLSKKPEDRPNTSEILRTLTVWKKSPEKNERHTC
Fibroblast growth factor receptor 2 (Homo sapiens), sequence (P21802 22-821 limits assumed): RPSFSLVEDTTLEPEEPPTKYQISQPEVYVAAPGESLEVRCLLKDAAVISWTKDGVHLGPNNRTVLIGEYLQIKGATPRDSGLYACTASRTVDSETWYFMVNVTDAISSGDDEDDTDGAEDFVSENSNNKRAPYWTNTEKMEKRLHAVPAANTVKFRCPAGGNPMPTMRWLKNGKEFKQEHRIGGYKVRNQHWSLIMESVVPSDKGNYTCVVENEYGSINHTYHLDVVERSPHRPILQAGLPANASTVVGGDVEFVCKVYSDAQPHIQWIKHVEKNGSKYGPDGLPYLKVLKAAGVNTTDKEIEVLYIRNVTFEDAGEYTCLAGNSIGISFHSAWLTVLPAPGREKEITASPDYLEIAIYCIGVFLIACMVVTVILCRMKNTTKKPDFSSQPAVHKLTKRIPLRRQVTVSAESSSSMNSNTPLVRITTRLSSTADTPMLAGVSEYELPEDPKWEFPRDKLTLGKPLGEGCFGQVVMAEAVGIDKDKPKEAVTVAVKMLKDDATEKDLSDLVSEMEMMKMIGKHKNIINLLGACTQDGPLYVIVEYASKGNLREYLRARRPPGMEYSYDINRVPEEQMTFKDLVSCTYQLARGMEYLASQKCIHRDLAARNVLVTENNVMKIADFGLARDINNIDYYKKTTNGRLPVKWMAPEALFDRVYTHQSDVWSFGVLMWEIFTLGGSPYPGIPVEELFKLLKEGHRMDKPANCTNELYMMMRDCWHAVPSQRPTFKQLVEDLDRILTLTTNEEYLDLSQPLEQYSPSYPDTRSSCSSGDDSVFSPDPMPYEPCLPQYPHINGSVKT
Mitogen-activated protein kinase 10 (Homo sapiens), sequence (P53779 whole entry): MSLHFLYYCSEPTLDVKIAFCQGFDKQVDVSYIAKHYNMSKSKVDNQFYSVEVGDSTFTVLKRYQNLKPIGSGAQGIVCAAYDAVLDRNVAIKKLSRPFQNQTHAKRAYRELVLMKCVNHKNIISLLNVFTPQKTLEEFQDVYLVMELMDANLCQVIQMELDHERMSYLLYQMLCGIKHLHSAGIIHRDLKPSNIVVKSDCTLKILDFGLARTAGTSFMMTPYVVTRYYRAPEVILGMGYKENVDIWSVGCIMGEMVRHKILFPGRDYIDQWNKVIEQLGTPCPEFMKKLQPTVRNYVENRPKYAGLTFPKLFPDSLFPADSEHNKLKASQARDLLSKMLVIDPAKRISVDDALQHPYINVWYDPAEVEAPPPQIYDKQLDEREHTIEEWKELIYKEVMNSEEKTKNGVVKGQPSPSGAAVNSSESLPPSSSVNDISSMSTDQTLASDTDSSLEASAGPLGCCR

residual activity [1] [%] | residual activity [2] [%] | residual activity [3] [%] | residual activity [4] [%] | residual activity [5] [%] | residual activity [6] [%] | residual activity [7] [%] | residual activity [8] [%] | residual activity [9] [%] | residual activity [10] [%] | Structure (SMILES)
122 | 103 | 96 | 26 | 84 | 82 | 81 | 102 | 102 | 106 | COc1cc2c(Oc3ccc(-c4nc5ccccc5s4)cc3)ncnc2cc1OCCCN1CCCC1
92 | 101 | 88 | 36 | 52 | 70 | 113 | 96 | 100 | 120 | COc1cc2c(Oc3ccc(-c4nc5ccccc5s4)cc3)ncnc2cc1OCCCN1CCN(C)CC1
97 | 105 | 41 | 34 | 45 | 95 | 83 | 97 | 109 | 115 | COc1cc2c(Oc3ccc(-c4nc5ccccc5s4)cc3F)ncnc2cc1OCCCN1CCN(C)CC1
